Legend:
E. coli JM109 = experiment: Growth and GFPuv expression in E. coli JM109, shake flask cultivation in mineral medium; format: cell-based, Escherichia coli; conditions: Experiment 2, additive 5 mM, 20 h, mean of two
Procedure: Precultures are prepared in 250 mL baffled shake flasks containing 25 mL sterile mineral medium [macronutrients in g/L: Glycerol (25), (NH4)2-citrate (1.0), Na2HPO4 2H2O (9.0), KH2PO4 (1.82), NH4Cl (1.52), MgSO4 (0.12), (NH4)2SO4 (0.6); Ampicillin ([…]); micronutrients in mg/L: Na2-EDTA (8.4), thiamine (4.5), Fe(III) citrate (12.5), Na2MoO4 2×H2O (2.5), H3BO3 (3), CoCl2 6×H2O (2.5), CuSO4 5×H2O (0.45) MnCl24×H2O (15), ZnCl2 (8) adjusted to pH 7.0]. Cultures are inoculated with 250 μL of a glycerol stock stored at −80° C. of E. coli JM109 (Promega Inc, Wallisellen, C H; Genotype: endA1, recA1, gyrA96, thi, hsdR17 (rk^−, mk^+), re/A1, supE44, Δ(lac-proAB), [F″ traD36, proAB, laql^qZΔM15]) harboring the plasmid pBAD-GFPuv (Biorad Inc., Reinach, C H; Genbank U62637.1, containing the GFPuv gene under control of the ara promoter; GFP=Green Fluorescent Protein). Precultures are incubated at 37° C. for 10-12 h.
Experimental cultures are performed in a volume of 25 mL of the above described medium in 250 mL baffled shake flasks. Stabilizers according to the invention are added to a final concentration of 5 mM as indicated from sterile stock solutions. Cultures are started by inoculating with the preculture to an optical density at 600 nm (OD600) of 0.25. Growth of the culture is monitored by reading optical density at 600 nm. Cultures are induced by adding L-arabinose to a final concentration of 0.2% (w/v) when the OD600 reaches 0.5. Samples of 1 mL are taken 6 and 20 h after induction for OD600 reading and GFP quantification. For GFP quantification 1 mL of the culture is harvested after 2-4 h and after 20 h after induction. Cells are collected by centrifugation at 16 000 g and the cell pellet is stored at −20° C. for further analysis.
(§1) The measurement of GFP expression by whole cell fluorescence measurements follows the procedure of Scholz et al. (Eur. J. Biochem., 2000,267, 1565-1570). Frozen cell pellets are thawed, resuspended in 1 mL PBS [NaCl (8 g/L), KCl (0.2), of Na2HPO4 (1.44), KH2PO4 (0.24), adjusted to pH 7.4] and subsequently diluted to an optical density of 0.1. GFP fluorescence of whole cells is measured in a Eclipse Fluorometer (Varian) with an excitation wavelength of 400 nm and an emission wavelength of 512 nm. Specific relative fluorescence [RFU/OD600] is calculated by dividing the relative fluorescence emmision units by the optical density of the suspension at 600 nm.

E. coli BL21 = experiment: Growth and GFPuv expression in E. coli BL21 (DE3), shake flask batch culture in complex medium; format: cell-based, Escherichia coli; conditions: additive 5 mM, 20 h after induction
Procedure: as §1
Precultures are prepared in 250 mL baffled shake flasks containing 25 mL sterile LB medium [Tryptone (10.0 g/L), yeast extract (5.0), NaCl (10.0), kanamycin 30 (mg/L); adjusted to pH 7.0 with NaOH]. Cultures are inoculated with 250 μL of a glycerol stock stored at −80° C. of E. coli BL21 [Novagen, Madison, USA; Genotype: E ompT hsdSB (rB^− mB^−) gal dcm (DE3)] harboring the plasmid pET28a-GFPuv which is obtained by inserting the GFPuv gene (isolated from pBAD-GFPuv through PCR) into the EcoRI site of pET28a (Novagen, Madison, USA) which placed the GFPuv gene under the control of the T7/Lac promotor system. Precultures are incubated at 37° C. for 10-12 h.
Experimental cultures are performed in a volume of 25 mL of the above described medium in 250 mL baffled shake flasks. Stabilizers are added to a final concentration of 5 mM as indicated from sterile stock solutions. Cultures are started by inoculating with the preculture to an OD600 at 600 nm of 0.25. Samples are taken for OD600 measurements. Cultures are induced by adding IPTG (Isopropyl-β-D-thiogalactoside) to a final concentration of 0.5 mM when the OD600 reaches 0.5. Samples of 1 mL are taken after induction for OD600 reading and GFP quantification. For GFP quantification 1 mL of the culture is harvested after 2-4 h and after 20 h after induction. Cells are collected by centrifugation at 16 000 g and the cell pellet is stored at −20° C. for further analysis. Analysis of in vivo GFP fluorescence is performed by the method described in Example 1.

**Q.** With `CC1(C)CC(O)CC(C)(C)N1[O]` [4-Hydroxy-2,2,6,6-tetramethylpiperidin-1-oxyl] as the compound, how does the “Growth (Final OD600)” value (E. coli JM109; control 11.0) read?
**A.** 9.5 OD600

**Q.** What about the “GFP expression (Relative fluorescence unit*OD600^−1)” value (E. coli JM109; control 1423) of the same compound?
**A.** 7276 Relative fluorescence unit*OD600^−1

**Q.** And the “Growth (Final OD600)” value (E. coli BL21; Experiment 1, control 3.4)?
**A.** 2.4 OD600

**Q.** What about the “GFP expression (Relative fluorescence unit*OD600^−1)” value (E. coli BL21; Experiment 1, control 584) of the same compound?
**A.** 1909 Relative fluorescence unit*OD600^−1

**Q.** What about the “Growth (Final OD600)” value (E. coli BL21; Experiment 2, control 3.3) of the same compound?
**A.** 2.61 OD600

**Q.** And the “GFP expression (Relative fluorescence unit*OD600^−1)” value (E. coli BL21; Experiment 2, control 195)?
**A.** 319 Relative fluorescence unit*OD600^−1

From patent US8859235B2, “Methods in cell cultures, and related inventions, employing certain additives” (priority 2009, dated 2014)
